One experiment concerns the target GluN1/GluN2D (Rattus norvegicus, UniProt P35439+Q62645). Kind of experiment: Whole-cell voltage-clamp recordings, HEK cells, GluN1/GluN2D (agonist dependence). Type of experiment: cell-based. Particulars: for Kd: from kON and kOFF. The source says: We previously described the actions of the GluN2C/GluN2D-preferring negative allosteric modulator DQP-1105 as dependent on glutamate (but not glycine) binding, in that DQP-1105 affinity increases after GluN1/GluN2D NMDARs bind glutamate.[32] […] The concentration-dependent relaxation is indicative of an agonist-induced increase in potency that leads to re-equilibration of the inhibitor after agonist binding induces an increase in inhibitor affinity. We investigated the glutamate dependence of compound 2i (GluN1/GluN2D, Figure 4; GluN1/GluN2C, Figure S2), DQP-1105 (Figure S1), and compound (S)-2a (DQP-69;[33]Figure S3) using the same protocols.
We preincubated cells with glycine and the inhibitor 2i (DQP-997-74) and compared inhibitor potency during the peak and steady-state current responses to glutamate application. […] To investigate the time course of 2i inhibition, we fitted the relaxation of the current response with a single exponential function. If the current response time course reflects 2i binding, then the reciprocal of τinhibition should be linearly related to its concentration, with the slope equal to kON and intercept equal to kOFF. […] The deactivation of GluN1/GluN2D receptors (5.3 ± 0.2 s) was slowed by the presence of compound 2i when applied at concentrations of 0.1 μM (7.3 ± 0.3 s; p = 0.017) and 0.3 μM (10.5 ± 1.0 s; p = 0.002) but not at 0.03 μM (5.6 ± 0.3 s; p = 0.518; Figure 4E). […] This phenomenon was previously discovered for QNZ-46, a glutamate-dependent GluN2C/2D-selective inhibitor with a different structural core.[42] As proposed in that study, the prolonged deactivation may indicate that 2i slows a conformational change necessary for glutamate unbinding or 2i may need to unbind before glutamate can unbind.
In addition, we evaluated how glutamate dependence affects inhibition of responses to brief agonist applications similar to phasic glutamate release that occurs at synapses. To do so, we preincubated cells expressing GluN1/GluN2D receptors with the inhibitor 2i and then applied trains of five brief pulses of NMDA (which dissociates more rapidly than glutamate) and glycine from a pressurized micropipette to mimic repetitive synaptic transmission (Figure 4F). We measured the peak amplitude and compared the concentration–response curves for the inhibition of the first and last response (Figure 4G). The initial train of pulses in the absence of drug controls for systematic errors such as internalization of receptors.
To further evaluate whether 2i followed the law of mass action, we coapplied different concentrations of 2i with glutamate during the steady-state glutamate and glycine responses of GluN1/GluN2D receptors expressed in HEK cells (Figure 4H). […] We also fitted the onset and offset time course of the inhibition produced by compound 2i with a single exponential function (Figure 4J).
HEK293 cells (HEK, ATCC CRL-1573) were plated on glass coverslips pretreated with 0.1 mg/mL poly-D-lysine and cultured in Dulbecco’s modified Eagle medium (DMEM) plus Glutamax (GIBCO 10569-10) supplemented with 10% fetal bovine serum, 10 U/mL of penicillin, and 10 μg/mL of streptomycin at 37 °C and 5% CO2. The cells were transiently transfected with cDNA encoding rat GluN1, GluN2D, and eGFP at a ratio of 1:1:5 by using the calcium phosphate precipitation method.[48] After 24–48 h following the transfection, the cells were perfused with external recording solution that contained (in mM) 3 KCl, 150 NaCl, 0.01 EDTA, 1.0 CaCl2, 10 HEPES, and 22 D-mannitol (the pH was adjusted to 7.4 with NaOH). The patch electrodes (resistance 3–5 MΩ) were prepared from thin-walled glass micropipettes (TW150F-4, World Precision Instruments, Sarasota, FL) by a dual-stage glass micropipette puller (PC-10, Narishige, Tokyo, Japan) and filled with internal solution containing (in mM) 110 D-gluconate, 110 CsOH, 30 CsCl, 5 HEPES, 4 NaCl, 0.5 CaCl2, 2 MgCl2, 5 BAPTA, 2 NaATP, and 0.3 NaGTP. […]

For experiment [1], the system named is AMPA, kainate, GluN1/GluN3, GABA, glycine, nicotinic, purinergic P2X receptors. Kind of experiment: Off-target actions, summary in words. Type of experiment: cell-based. As to conditions: 1 μM. The method, then: By contrast, the other enantiomer (R)-(+)-2i had lower potency and produced shallow, incomplete inhibition (Figure S11).
Analysis of Off-target Actions
Compound (S)-(-)-2i was tested at 1 µM for actions at glycine-activated GluN1/GluN3A (human GluN1-F484A,T518L/GluN3A referred to a GluN1-FA,TL/GluN3A) and rat GluN1-4a/GluN3B in the presence of 0.5 µM CGP-78608. cRNA injection ratios for GluN1/GluN3 were 1:2. Compound (S)-(-)- 2i was also tested for actions at AMPA (rat GluA1, rat GluA2, human GluA3-L531Y), kainate (rat GluK2), nicotinic acetylcholine (rat α7 and α4β2, cRNA ratio 1:1), GABAA (rat α1β2γ2S, cRNA ratio 1:1:1), GABAC (rat ρ1), glycine (rat α1), and purinergic (human P2X) receptors expressed in Xenopus oocytes. cRNA encoding the receptor subunits was synthesized from linear template cDNA using the mMessage mMachine kit (Ambion). Oocytes were injected with 1-5 ng cRNA in a 50 nL volume and incubated in Barth's solution at 15°C for 2-5 days prior to recording. GluK2-expressing oocyte were incubated in 1 mg/ml (10 µM) concanavalin-A for 10 min prior to recording. The cDNAs encoding GABAC and glycine subunits were provided by Dr. D. Weiss (University of Texas Health Science Center at San Antonio). cDNAs encoding nicotinic acetylcholine receptor subunits were provided by Drs. […]
GABA. […] Responses in presence of test compound were expressed as a percent of control. […]

Where [2] appears, read: HEK293, coapplication with glutamate.
Where [3] appears, read: HEK293, inhibitor preapplied, linear regression of 1/τinhibition vs concentration.

Entries after “also recorded” stand apart in the source; their conditions may differ. Like-named read-outs stand apart in the source and are kept apart here.

Sequence of GluN1/GluN2D (Q62645 28-1323, other chains not shown): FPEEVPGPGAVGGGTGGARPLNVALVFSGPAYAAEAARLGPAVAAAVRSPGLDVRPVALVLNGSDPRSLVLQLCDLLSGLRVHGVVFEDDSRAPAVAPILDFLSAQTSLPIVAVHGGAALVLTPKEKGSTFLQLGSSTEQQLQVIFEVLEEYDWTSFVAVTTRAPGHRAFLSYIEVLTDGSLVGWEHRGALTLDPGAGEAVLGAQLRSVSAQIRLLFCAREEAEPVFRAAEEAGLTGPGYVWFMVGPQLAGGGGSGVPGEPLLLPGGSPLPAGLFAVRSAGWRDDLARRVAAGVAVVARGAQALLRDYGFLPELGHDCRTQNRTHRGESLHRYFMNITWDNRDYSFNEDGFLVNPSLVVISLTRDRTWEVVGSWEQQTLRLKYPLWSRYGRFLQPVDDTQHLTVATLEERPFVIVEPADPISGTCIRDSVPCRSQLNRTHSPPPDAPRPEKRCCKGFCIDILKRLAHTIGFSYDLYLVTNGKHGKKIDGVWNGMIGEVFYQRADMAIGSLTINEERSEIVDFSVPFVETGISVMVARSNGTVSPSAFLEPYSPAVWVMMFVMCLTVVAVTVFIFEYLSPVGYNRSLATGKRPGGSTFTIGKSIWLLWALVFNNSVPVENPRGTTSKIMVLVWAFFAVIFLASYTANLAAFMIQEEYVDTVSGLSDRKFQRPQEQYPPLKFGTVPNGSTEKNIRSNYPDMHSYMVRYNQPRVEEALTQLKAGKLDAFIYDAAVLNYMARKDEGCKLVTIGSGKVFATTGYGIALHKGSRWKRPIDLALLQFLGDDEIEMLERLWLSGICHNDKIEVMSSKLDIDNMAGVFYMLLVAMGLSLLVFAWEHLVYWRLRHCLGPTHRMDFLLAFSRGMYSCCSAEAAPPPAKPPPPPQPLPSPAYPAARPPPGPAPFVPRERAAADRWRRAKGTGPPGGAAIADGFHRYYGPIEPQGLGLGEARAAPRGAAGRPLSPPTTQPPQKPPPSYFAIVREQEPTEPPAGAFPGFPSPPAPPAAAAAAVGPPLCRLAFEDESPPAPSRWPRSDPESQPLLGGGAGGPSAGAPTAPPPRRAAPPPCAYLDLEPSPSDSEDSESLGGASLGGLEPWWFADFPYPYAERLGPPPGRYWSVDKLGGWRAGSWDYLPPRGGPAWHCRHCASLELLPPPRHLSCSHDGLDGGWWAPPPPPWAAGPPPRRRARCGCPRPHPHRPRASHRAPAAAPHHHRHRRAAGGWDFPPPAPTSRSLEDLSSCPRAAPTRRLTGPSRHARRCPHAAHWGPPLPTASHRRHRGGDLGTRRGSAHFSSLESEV

`O=C(O)CC(F)(F)C(=O)N1N=C(c2c(-c3ccc(Cl)cc3)c3ccccc3[nH]c2=O)CC1c1ccc(Cl)cc1` (stereo not drawn) [2i]: the results for the koff at GluN1/GluN2D (setting [2]) and at GluN1/GluN2D (setting [3]) were 0.05 s⁻¹ and 0.17 s⁻¹, respectively. For the same compound, the kon (usually the rate constant with which the complex forms) on GluN1/GluN2D (setting [2]) turned out to be 210000 M⁻¹ s⁻¹; at GluN1/GluN2D (setting [3]), 400000 M⁻¹ s⁻¹. The dissociation constant Kd (as a rule, the free concentration of one partner at which half of the binding sites on the other are occupied at equilibrium, for simple one-to-one binding) was 240 nM on GluN1/GluN2D (coapplication with glutamate) and 430 nM at GluN1/GluN2D (inhibitor preapplied). The IC50 – broadly, the midpoint of a concentration-inhibition curve – was 100 nM at GluN1/GluN2D (compound coapplied with glutamate during steady-state response, read-out: IC50 steady-state inhibition, coapplication); 400 nM at GluN1/GluN2D (fifth of 5 brief NMDA (500 μM)/glycine (250 μM) pulses at 1 s intervals, read-out: IC50 pulse 5 (95% CI)); 750 nM at GluN1/GluN2D (first of 5 brief NMDA (500 μM)/glycine (250 μM) pulses at 1 s intervals, read-out: IC50 pulse 1 (95% CI)); 230 nM on GluN1/GluN2D (peak current response to glutamate, inhibitor preapplied, read-out: IC50 peak (95% CI)); 80 nM at GluN1/GluN2D (steady-state current response to glutamate, inhibitor preapplied, read-out: IC50 steady-state (95% CI)).
`O=C(O)CC(F)(F)C(=O)N1N=C(c2c(-c3ccc(Cl)cc3)c3ccccc3[nH]c2=O)C[C@H]1c1ccc(Cl)cc1` [(S)-(−)-2i]: the “off-target actions” value in experiment [1] is reported as “no effects; also recorded: no activity”.

(Values after article PMC10485906, “Development of a Dihydroquinoline–Pyrazoline GluN2C/2D-Selective Negative Allosteric Modulator of the N-Methyl-D-aspartate Receptor” (ACS Chemical Neuroscience, 2023).)
